Source: patent publication US10980824B2, “Pharmaceutical composition comprising quercetin-3-O-β-D-xylopyranoside for preventing or treating liver disease” (Hongcheon Institute of Medical Herb, priority 2016, dated 2021)

Legend:
Format in all cases: in vivo, C57BL/6N mice
CPT-1 = test: Western blot of CPT-1 in liver tissue; settings: compound group vs alcohol-fed group
Method: (§1) Expression of p-AMPKα, p-ACC, and CPT-1, which regulate intrahepatic lipid metabolism, was analyzed by western blot analysis to understand the mechanism involved in pathogenesis of alcoholic steatosis in detail. The specific western blot analysis method is as follows.
(§2) First, a mouse liver homogenate was prepared by using a RIPA buffer solution including a protease and tyrosine phosphatase inhibitor cocktail (Sigma). Protein concentrations of lysates were determined using a Bicinchoninic (BCA) Protein Assay Kit (Thermo Scientific, IL, USA) according to the manufacturer's instructions. Isolated soluble proteins ([…]) were separated on an 8% to 15% SDS-polyacrylamide gel. The separated proteins were electroblotted on a nitrocellulose transfer membrane (Bio-Rad, Hercules, Calif., USA). The membrane was incubated with 5% non-fat dry milk for 1 hour and then probed for antigens using antibodies diluted to 1:1,000, and was incubated with anti-pAMPKα, anti-AMPKα, anti-PACC, anti-ACC, anti-CYP2E1, anti-CPT1a (Cell Signaling Technology), and anti-β-actin (Santa Cruz Biotechnology) at 4° C. for 18 hours. […] Band density was measured using ImageJ (National Institutes of Health, Bethesda, Md., USA) and expressed as a multiple relative to β-actin.

[1] = test system: alcoholic steatosis-induced mice; test: Fat accumulation in the liver (visual observation, H&E staining, Oil Red O staining); settings: 1 mg/kg oral 10 days
Method: (§3) 8-week-old C57BL/6N mice were purchased from DAEHAN BIOLINK to be used for efficacy evaluation and quarantined and acclimated in a vivarium of HONGCHEON INSTITUTE OF MEDICAL HERB for 7 days (relative temperature: 23±2° C., relative humidity: 50±5%, and a 12 h light-dark cycle) prior to the start of experimentation. Among them, 18 male mice with no abnormal symptoms were selected and used.
(§4) During a liquid diet adaptation period, a control group was restrictedly fed with a Lieber-DeCarli'82 control liquid diet (F1259SP, Bio-serv), and an alcohol-fed group was restrictedly fed with a Lieber-DeCarli'82 ethanol liquid diet (F1258SP, Bio-serv) using a Liquid diet feeding tube (9019, Bio-serv), and the diets were replaced with new ones at a preset time between 3 P.M. and 5 P.M.
(§5) After 5 days of the liquid diet adaptation period, the mice were orally administered with 1 mg/kg of quercetin-3-O-β-D-xylopyranoside (test substance) for 10 days and fed with a 5% alcohol liquid diet. At 11th day, between 7 A.M. and 9 A.M., a group not fed with alcohol (hereinafter referred to as Pair-fed group) was orally administered with a 45% maltose dextrin solution, and a group fed with a 5% liquid diet (hereinafter referred to as EtOH-fed) and a group administered with a test substance (hereinafter referred to as EtOH+B group) were orally fed with 31.5% ethanol. […]

p-ACC = test: Western blot of p-ACC in liver tissue; settings: compound group vs alcohol-fed group
Method: as §1, §2

MCP-1 = test: mRNA level of MCP-1 by RT-PCR; settings: alcohol+compound group vs alcohol-fed group (FIG. 14)
From the text: (§6) Monocyte chemoattractant protein 1 (MCP-1), called chemokine ligand 2 (CCL2), is one of the key chemokines that regulate pathogeneses of several diseases caused by monocyte infiltration. Meanwhile, interleukin 1 beta (IL1β), also known as a leukocytic endogenous mediator and a lymphocyte activating factor, is a member of the interleukin 1 family of cytokines. The cytokines are produced by activated macrophages at a damaged region of tissue.
(§7) Specifically, mRNA levels of MCP-1 and IL-1β were analyzed by using RT-PCR as described above in Example 2-8.

[2] = test system: alcoholic steatosis-induced mice; test: Concentrations of triglycerides in the blood and liver; settings: 1 mg/kg oral 10 days; EtOH+B vs EtOH-fed (FIG. 7)
Method: as §3, §4, §5

[3] = Body weight, feed intake and excised organ weight of alcoholic steatosis-induced mice; settings: 1 mg/kg oral 10 days; conclusion from body and organ weights
Method: as §3, §4
After 5 days of the liquid diet adaptation period, the mice were orally administered with 1 mg/kg of quercetin-3-O-β-D-xylopyranoside (test substance) for 10 days and fed with a 5% alcohol liquid diet. At 11th day, between 7 A.M. and 9 A.M., a group not fed with alcohol (hereinafter referred to as Pair-fed group) was orally administered with a 45% maltose dextrin solution, and a group fed with a 5% liquid diet (hereinafter referred to as EtOH-fed) and a group administered with a test substance (hereinafter referred to as EtOH+B group) were orally fed with 31.5% ethanol.
2-1. […]

[4] = test system: alcoholic steatosis-induced mice; test: Progression of hepatic fibrosis in reticular fibers by Gomori Reticulum staining; settings: 1 mg/kg oral 10 days; EtOH+B vs EtOH-fed (FIG. 9)
Method: as §3, §4, §5

[5] = test system: cytochrome P-450 2E1 (CYP2E1); test: Expression of cytochrome P-450 2E1 by tissue staining; settings: liver tissue staining; 1 mg/kg oral 10 days; EtOH+B vs EtOH-fed (FIG. 8)
Method: as §3, §4, §5

ApoB gene = test: Real-time PCR of lipid metabolism gene expression in liver: ApoB; settings: liver mRNA, relative to Pair-fed group; EtOH+B group, 1 mg/kg oral 10 days (FIG. 11)
Method: as §3
as §4, with “5 P.M. […]” for “5 P.M.”
(§8) Real-time quantitative PCR was performed using a 7500 Real-time Thermal Cycler (Applied Biosystems, USA) with SYBR Green (Applied Biosystems, USA) to measure gene expression. […]
(§9) PCR amplification steps as described below were repeated for up to 40 cycles. […] Values were recorded after extension at every cycle.
(§10) After completion of all cycles, melting curve analysis was carried out to verify specificity of the primers. The results were analyzed using the One step system software v2.1 provided by Applied Biosystems.

p-AMPKα = test: Western blot of p-AMPKα in liver tissue
Method: as §1, §2

adiponectin = test: Effect on recovering adiponectin in alcoholic steatosis mice; settings: alcohol+compound group vs alcohol-fed group (FIG. 13)
Method: Adiponectin, which is a major anti-inflammatory agent, is an adipose tissue-derived adipokine. […] Thus, a plasma level of adiponectin was analyzed by ELISA to evaluate the effect of quercetin-3-O-β-D-xylopyranoside on regulation of the adiponectin content.
Specifically, the plasma level of adiponectin was analyzed by using RT-PCR and ELISA in the same manner as the measurement of the TNF-α level in liver tissue as described above in Example 2-8.

[6] = test system: alcoholic steatosis-induced mice; test: Biochemical analysis of ALT and AST levels; settings: 1 mg/kg oral 10 days; EtOH+B vs EtOH-fed (FIG. 10)
Method: as §3, §4, §5

IL-1β = test: mRNA level of IL-1β by RT-PCR; settings: alcohol+compound group vs alcohol-fed group (FIG. 14)
From the text: as §6, §7

Cd36 gene = test: Real-time PCR of lipid metabolism gene expression in liver: Cd36; settings: liver mRNA, relative to Pair-fed group; EtOH+B group, 1 mg/kg oral 10 days (FIG. 11)
Method: as §3
as §4, with “5 P.M. […]” for “5 P.M.”
as §8, §9, §10

TNF-α = test: Inhibitory effect on TNF-α in alcoholic steatosis mice; settings: liver tissue, vs alcohol-fed group (FIG. 12A)
Method: The level of TNF-α in liver tissue was measured by using RT-PCR and ELISA as described above in Example 2-7 to analyze whether the amount of TNF-α induced by alcohol was reduced due to treatment of quercetin-3-O-β-D-xylopyranoside.
A commercially available ELISA kit purchased from R&D Systems (Minneapolis, Minn.) was used.

Fas gene = test: Real-time PCR of lipid metabolism gene expression in liver: Fas; settings: liver mRNA, relative to Pair-fed group; EtOH+B group, 1 mg/kg oral 10 days (FIG. 11)
Method: as §3
as §4, with “5 P.M. […]” for “5 P.M.”
as §8, §9, §10

[7] = test system: alcoholic steatosis-induced mice; test: Apoptosis in liver tissue by TUNEL assay; settings: alcohol+compound group vs group fed with only alcohol (FIG. 15)
Method: DNA fragmentation characteristics of apoptosis were examined using a terminal deoxynucleotidyl transferase (TdT)-FragEL kit (Oncogene Research Products, San Diego, Calif.).
First, a tissue sample fixed in 4% paraformaldehyde was embedded in paraffin and sliced into 5 μm sections. Replicated sections were rehydrated and permeabilized with proteinase K (20 μg/mL) at 25° C. for 20 minutes. Subsequently, the sections were covered with 3% H2O2 for 5 minutes to inactivate endogenous peroxidase. After the sample was incubated in a TdT buffer solution (200 mM sodium-cacodylate, 30 mM Tris, 0.3 mg/mL BSA, 0.75 mM CoCl2, pH 6.6) for 5 minutes, slides were covered with TdT and biotinylated dUTP and incubated in a humidified chamber at 37° C. for 1.5 hours. Negative controls were incubated with biotinylated dUTP in a TdT buffer solution without enzyme. Reactions were terminated by adding a stop buffer (0.5 M EDTA, pH 8.0) thereto at room temperature for 5 minutes. After blocking with 4% BSA, the slides were incubated with a streptavidin-horseradish peroxidase conjugate for 30 minutes. Subsequently, the sections were incubated in DAB at room temperature for 12 minutes and counterstained with methyl green. Apoptotic cells were identified by stained properties and morphological criteria (cell contraction, chromatin condensation and/or margination, and apoptotic bodies).

Fabp gene = test: Real-time PCR of lipid metabolism gene expression in liver: Fabp; settings: liver mRNA, relative to Pair-fed group; EtOH+B group, 1 mg/kg oral 10 days (FIG. 11)
Method: as §3
as §4, with “5 P.M. […]” for “5 P.M.”
as §8, §9, §10

## O=c1c(O[C@@H]2OC[C@@H](O)[C@H](O)[C@H]2O)c(-c2ccc(O)c(O)c2)oc2cc(O)cc(O)c12 [quercetin-3-O-β-D-xylopyranoside]
CPT-1
  CPT-1 level: significantly restored
[1]; EtOH+B vs EtOH-fed (FIG. 5)
  amount of lipid accumulated in the liver, dissection and visual observation: significantly reduced
[1]; EtOH+B vs EtOH-fed (FIG. 6)
  amount of lipid droplets in the liver tissue, H&E and Oil Red O staining: significantly reduced
p-ACC
  p-ACC level: significantly restored
MCP-1
  mRNA level of MCP-1: significantly reduced
[2]
  concentration of triglycerides in the blood: significantly reduced
  concentration of triglycerides in the liver: significantly reduced
[3]
  toxicity to mice and internal organs: no toxicity
[4]
  progression of hepatic fibrosis in reticular fibers: suppressed
[5]
  CYP2E1 expression level: far lower
ApoB gene
  expression level of the ApoB gene: 0.8 times
p-AMPKα; 10 mg/kg (FIGS. 16A and 16B)
  expression level of pAMPK: significantly increased
p-AMPKα; among the groups (FIGS. 16A and 16B)
  expression levels of AMPK protein: no difference
adiponectin
  plasma adiponectin level: significantly recovered
[6]
  ALT level: decreased
  AST level: decreased
IL-1β
  mRNA level of IL-1β: significantly reduced
Cd36 gene
  expression level of the Cd36 gene: 0.98 times
TNF-α; 1 mg/kg
  expression level of RNA of TNF-α: significantly inhibited
TNF-α; 10 mg/kg
  expression level of RNA of TNF-α: significantly inhibited
Fas gene
  expression level of the Fas gene: 1.1 times
[7]
  degree of apoptosis in liver tissue: significantly reduced
Fabp gene
  expression level of the Fabp gene: 0.7 times
